For series [1] the following is noted: atorvastatin and its metabolites; cited from earlier work.
For series [2] the following is noted: investigation cohort, 70 patients.

In the case of `CC(C)c1c(C(=O)Nc2ccccc2)c(-c2ccccc2)c(-c2ccc(F)cc2)n1CC[C@@H](O)C[C@@H](O)CC(=O)O` [atorvastatin], the “fraction of the oral dose excreted in urine” value in series [1] is “less than 1%”. Besides, the “σ (SD), residual variability” value (exponential residual error) is given as 0.085. In addition, where the note is “final PopPK model”, the “ωQ (SD), between-subject variability” value is 0.715; the “ωVc (SD), between-subject variability” value came out at 1.18; the “ωVp (SD), between-subject variability” value turned out to be 0.508. Further, the “patients with myalgia at any time during follow-up” value in series [2] was 8.6%.
